How the values were obtained:
[1] = molecular target: Beta-2 adrenergic receptor (Homo sapiens, UniProt P07550); test: ADRB2 Eurofins SafetyScan (Receptor)
Adenosine receptor A2a = Adenosine receptor A2a (Homo sapiens, UniProt P29274); test: ADORA2A Eurofins SafetyScan (Receptor)
[2] = molecular target: Muscarinic acetylcholine receptor M2 (Homo sapiens, UniProt P08172); test: CHRM2 Eurofins SafetyScan (Receptor)
[3] = molecular target: 5-hydroxytryptamine receptor 3A (Homo sapiens) (UniProt P46098); conditions: Compound concentration 10.0 uM
[4] = molecular target: T1, 5-hydroxytryptamine receptor 1B (Homo sapiens, UniProt P28222); conditions: Compound concentration 10.0 uM
[5] = molecular target: T1, 5-hydroxytryptamine receptor 1B; test: HTR1B Eurofins SafetyScan (Receptor)
[6] = molecular target: T2, Kappa-type opioid receptor (Homo sapiens, UniProt P41145); conditions: Compound concentration 10.0 uM
[7] = molecular target: 5-hydroxytryptamine receptor 1E (Homo sapiens) (UniProt P28566); conditions: Compound concentration 10.0 uM
[8] = molecular target: Alpha-2B adrenergic receptor (Homo sapiens) (UniProt P18089); conditions: Compound concentration 10.0 uM
[9] = molecular target: Alpha-1B adrenergic receptor (Homo sapiens) (UniProt P35368); conditions: Compound concentration 10.0 uM
[10] = GPCRScan assay: inhibition of GABA/PBR; parameters: species or system Rattus norvegicus; radioligand conc. used [nm] 0.3 – 2.0, parental cells brain tissue
Endothelin-1 receptor = Endothelin-1 receptor (Homo sapiens, UniProt P25101); test: EDNRA Eurofins SafetyScan (Receptor)
[11] = molecular target: Vascular endothelial growth factor receptor 2 (Homo sapiens, UniProt P35968); test: VEGFR2 Eurofins SafetyScreen (Other); parameters: species or system Inhibitor
Histamine H2 receptor [12] = molecular target: T3, Histamine H2 receptor (Homo sapiens, UniProt P25021); test: HRH2 Eurofins SafetyScan (Receptor)
[13] = molecular target: Alpha-2A adrenergic receptor (Homo sapiens, UniProt P08913); test: ADRA2A Eurofins SafetyScan (Receptor)
[14] = molecular target: T4, Sodium-dependent dopamine transporter (Homo sapiens, UniProt Q01959); test: DAT Eurofins SafetyScreen (Other); parameters: species or system Blocker
[15] = molecular target: Sodium-dependent serotonin transporter (Homo sapiens, UniProt P31645); test: SERT Eurofins SafetyScreen (Other); parameters: species or system Blocker
[16] = molecular target: Alpha-2C adrenergic receptor (Homo sapiens) (UniProt P18825); conditions: Compound concentration 10.0 uM
[17] = molecular target: Muscarinic acetylcholine receptor M5 (Homo sapiens) (UniProt P08912); conditions: Compound concentration 10.0 uM
Histamine H2 receptor [18] = molecular target: T3, Histamine H2 receptor; conditions: Compound concentration 10.0 uM
[19] = molecular target: Glutamate receptor ionotropic, NMDA 2B (Homo sapiens, UniProt Q05586+Q13224); test: GluN2B-containing NMDA receptor (Ca2+ influx) assay (EC50)
[20] = molecular target: Tyrosine-protein kinase Lck (Homo sapiens, UniProt P06239); test: LCK Eurofins SafetyScreen (Other); parameters: species or system Inhibitor
[21] = molecular target: Rho-associated protein kinase 1 (Homo sapiens, UniProt Q13464); test: ROCK1 Eurofins SafetyScreen (Other); parameters: species or system Inhibitor
Rattus norvegicus = species: Rattus norvegicus; conditions: Compound concentration 10.0 uM
[22] = molecular target: D(1B) dopamine receptor (Homo sapiens) (UniProt P21918); conditions: Compound concentration 10.0 uM
[23] = molecular target: Voltage-dependent L-type calcium channel subunit alpha-1C (Homo sapiens, UniProt Q13936); test: CAV1.2 Eurofins SafetyScreen (Other); parameters: species or system Blocker
Glucocorticoid receptor = Glucocorticoid receptor (Homo sapiens, UniProt P04150); test: GR Eurofins SafetyScan (Receptor)
Histamine H1 receptor = Histamine H1 receptor (Homo sapiens, UniProt P35367); conditions: Compound concentration 10.0 uM
[24] = molecular target: Alpha-2A adrenergic receptor (Homo sapiens) (UniProt P08913); conditions: Compound concentration 10.0 uM
[25] = molecular target: 5-hydroxytryptamine receptor 6 (Homo sapiens) (UniProt P50406); conditions: Compound concentration 10.0 uM
[26] = molecular target: Histamine H3 receptor (Homo sapiens) (UniProt Q9Y5N1); conditions: Compound concentration 10.0 uM
[27] = molecular target: 5-hydroxytryptamine receptor 1D (Homo sapiens, UniProt P28221); conditions: Compound concentration 10.0 uM
Acetylcholinesterase = Acetylcholinesterase (Homo sapiens, UniProt P22303); test: AChE Eurofins SafetyScreen (Other); parameters: species or system Inhibitor
[28] = molecular target: Sodium-dependent noradrenaline transporter (Homo sapiens, UniProt P23975); conditions: Compound concentration 10.0 uM
[29] = molecular target: T4, Sodium-dependent dopamine transporter; conditions: Compound concentration 10.0 uM
[30] = molecular target: T4, Sodium-dependent dopamine transporter; test: GPCRScan assay: inhibition of DAT; parameters: radioligand conc. used [nm] 3.6 – 16.0, parental cells stable HEK
[31] = molecular target: T2, Kappa-type opioid receptor; test: OPRK1 Eurofins SafetyScan (Receptor)
[32] = molecular target: D(3) dopamine receptor (Homo sapiens) (UniProt P35462); conditions: Compound concentration 10.0 uM
[33] = molecular target: cGMP-inhibited 3',5'-cyclic phosphodiesterase 3A (Homo sapiens, UniProt Q14432); test: PDE3A Eurofins SafetyScreen (Other); parameters: species or system Inhibitor
[34] = molecular target: Sigma non-opioid intracellular receptor 1 (Homo sapiens) (UniProt Q99720); conditions: Compound concentration 10.0 uM
[35] = molecular target: Alpha-1A adrenergic receptor (Homo sapiens, UniProt P35348); test: ADRA1A Eurofins SafetyScan (Receptor)
[36] = molecular target: Voltage-gated inwardly rectifying potassium channel KCNH2 (Homo sapiens, UniProt Q12809); test: hERG Eurofins SafetyScreen (Other); parameters: species or system Blocker
[37] = molecular target: Muscarinic acetylcholine receptor M3 (Homo sapiens, UniProt P20309); test: CHRM3 Eurofins SafetyScan (Receptor)
[38] = molecular target: Beta-1 adrenergic receptor (Homo sapiens, UniProt P08588); test: ADRB1 Eurofins SafetyScan (Receptor)
Cannabinoid receptor 2 = Cannabinoid receptor 2 (Homo sapiens, UniProt P34972); test: CNR2 Eurofins SafetyScan (Receptor)
[39] = molecular target: 5-hydroxytryptamine receptor 1A (Homo sapiens) (UniProt P08908); conditions: Compound concentration 10.0 uM

T4 sequence (Q01959 whole entry): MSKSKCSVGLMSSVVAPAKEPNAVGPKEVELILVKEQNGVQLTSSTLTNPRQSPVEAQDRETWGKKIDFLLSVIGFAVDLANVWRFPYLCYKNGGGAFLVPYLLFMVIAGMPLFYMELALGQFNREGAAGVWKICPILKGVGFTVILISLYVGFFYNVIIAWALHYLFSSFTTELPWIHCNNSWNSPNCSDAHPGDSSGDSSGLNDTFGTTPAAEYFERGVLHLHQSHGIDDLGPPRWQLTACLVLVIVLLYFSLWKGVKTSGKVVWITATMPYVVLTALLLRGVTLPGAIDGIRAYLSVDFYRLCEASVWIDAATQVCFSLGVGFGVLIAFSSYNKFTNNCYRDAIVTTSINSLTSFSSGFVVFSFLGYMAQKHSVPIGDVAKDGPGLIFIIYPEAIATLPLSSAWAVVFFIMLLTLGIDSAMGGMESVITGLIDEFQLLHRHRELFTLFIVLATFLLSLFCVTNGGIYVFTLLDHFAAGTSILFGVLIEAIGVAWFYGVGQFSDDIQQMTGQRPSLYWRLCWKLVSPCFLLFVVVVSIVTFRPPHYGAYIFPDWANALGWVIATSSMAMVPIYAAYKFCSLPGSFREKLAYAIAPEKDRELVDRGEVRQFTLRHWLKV
T2 sequence (P41145 whole entry): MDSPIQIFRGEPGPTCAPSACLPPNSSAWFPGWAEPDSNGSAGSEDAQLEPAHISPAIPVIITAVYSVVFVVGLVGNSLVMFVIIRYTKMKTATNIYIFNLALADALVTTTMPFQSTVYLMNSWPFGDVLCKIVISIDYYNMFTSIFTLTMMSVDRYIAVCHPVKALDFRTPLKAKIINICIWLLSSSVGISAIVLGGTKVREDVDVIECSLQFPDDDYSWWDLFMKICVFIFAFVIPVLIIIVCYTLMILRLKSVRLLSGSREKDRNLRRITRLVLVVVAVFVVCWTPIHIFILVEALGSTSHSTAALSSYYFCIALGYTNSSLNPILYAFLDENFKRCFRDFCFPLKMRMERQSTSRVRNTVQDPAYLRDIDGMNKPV
T3 sequence (P25021 whole entry): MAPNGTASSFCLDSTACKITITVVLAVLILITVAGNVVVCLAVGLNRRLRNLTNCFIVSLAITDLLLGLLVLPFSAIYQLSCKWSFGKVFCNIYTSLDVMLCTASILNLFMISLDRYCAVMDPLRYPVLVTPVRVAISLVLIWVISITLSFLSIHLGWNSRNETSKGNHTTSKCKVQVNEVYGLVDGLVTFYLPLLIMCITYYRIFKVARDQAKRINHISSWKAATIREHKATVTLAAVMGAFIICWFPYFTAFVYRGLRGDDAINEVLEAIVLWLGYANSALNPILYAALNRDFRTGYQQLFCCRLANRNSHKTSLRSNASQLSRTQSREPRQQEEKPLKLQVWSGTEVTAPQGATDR
T1 sequence (P28222 whole entry): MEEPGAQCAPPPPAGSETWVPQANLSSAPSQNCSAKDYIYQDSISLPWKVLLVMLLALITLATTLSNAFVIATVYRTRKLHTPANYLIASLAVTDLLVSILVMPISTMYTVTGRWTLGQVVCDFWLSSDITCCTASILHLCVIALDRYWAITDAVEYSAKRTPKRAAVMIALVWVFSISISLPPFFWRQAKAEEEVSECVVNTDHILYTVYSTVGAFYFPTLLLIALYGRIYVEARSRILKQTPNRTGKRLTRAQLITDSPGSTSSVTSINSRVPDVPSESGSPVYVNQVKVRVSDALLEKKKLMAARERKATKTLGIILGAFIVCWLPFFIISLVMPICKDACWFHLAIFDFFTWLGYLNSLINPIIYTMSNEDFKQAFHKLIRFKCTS
Chain of Alpha-2A adrenergic receptor (P08913 whole entry): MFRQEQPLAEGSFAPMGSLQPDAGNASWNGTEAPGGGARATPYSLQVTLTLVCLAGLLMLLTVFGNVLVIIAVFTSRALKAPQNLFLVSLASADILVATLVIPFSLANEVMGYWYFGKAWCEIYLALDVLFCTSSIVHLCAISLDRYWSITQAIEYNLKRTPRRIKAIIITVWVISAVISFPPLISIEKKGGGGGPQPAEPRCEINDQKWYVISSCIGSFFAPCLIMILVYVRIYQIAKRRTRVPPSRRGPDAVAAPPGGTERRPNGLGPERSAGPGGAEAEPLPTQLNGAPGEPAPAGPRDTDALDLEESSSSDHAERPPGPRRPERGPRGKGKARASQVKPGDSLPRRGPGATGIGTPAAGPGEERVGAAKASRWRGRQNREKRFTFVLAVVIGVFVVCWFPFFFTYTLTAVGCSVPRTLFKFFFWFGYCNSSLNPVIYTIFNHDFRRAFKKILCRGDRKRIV
Chain of Adenosine receptor A2a (P29274 whole entry): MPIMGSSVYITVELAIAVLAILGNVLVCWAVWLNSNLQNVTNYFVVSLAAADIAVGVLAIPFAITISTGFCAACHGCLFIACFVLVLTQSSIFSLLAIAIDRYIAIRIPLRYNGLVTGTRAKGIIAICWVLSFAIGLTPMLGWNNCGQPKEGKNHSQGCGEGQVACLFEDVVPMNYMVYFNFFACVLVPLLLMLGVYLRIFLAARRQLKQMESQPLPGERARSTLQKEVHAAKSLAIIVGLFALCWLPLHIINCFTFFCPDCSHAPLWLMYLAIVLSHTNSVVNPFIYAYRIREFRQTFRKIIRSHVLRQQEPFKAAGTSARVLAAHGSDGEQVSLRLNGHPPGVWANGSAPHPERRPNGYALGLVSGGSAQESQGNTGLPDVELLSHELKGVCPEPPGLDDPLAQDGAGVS
Chain of Cannabinoid receptor 2 (P34972 whole entry): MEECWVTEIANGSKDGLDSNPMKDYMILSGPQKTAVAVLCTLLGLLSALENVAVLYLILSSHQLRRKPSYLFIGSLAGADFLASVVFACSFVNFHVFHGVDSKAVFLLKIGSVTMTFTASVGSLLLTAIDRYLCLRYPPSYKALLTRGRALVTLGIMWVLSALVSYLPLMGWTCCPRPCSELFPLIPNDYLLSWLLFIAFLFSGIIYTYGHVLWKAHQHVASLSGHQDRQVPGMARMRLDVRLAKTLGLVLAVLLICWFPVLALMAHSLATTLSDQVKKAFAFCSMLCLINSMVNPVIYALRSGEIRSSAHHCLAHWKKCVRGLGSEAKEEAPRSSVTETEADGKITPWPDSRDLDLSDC
Chain of Beta-1 adrenergic receptor (P08588 whole entry): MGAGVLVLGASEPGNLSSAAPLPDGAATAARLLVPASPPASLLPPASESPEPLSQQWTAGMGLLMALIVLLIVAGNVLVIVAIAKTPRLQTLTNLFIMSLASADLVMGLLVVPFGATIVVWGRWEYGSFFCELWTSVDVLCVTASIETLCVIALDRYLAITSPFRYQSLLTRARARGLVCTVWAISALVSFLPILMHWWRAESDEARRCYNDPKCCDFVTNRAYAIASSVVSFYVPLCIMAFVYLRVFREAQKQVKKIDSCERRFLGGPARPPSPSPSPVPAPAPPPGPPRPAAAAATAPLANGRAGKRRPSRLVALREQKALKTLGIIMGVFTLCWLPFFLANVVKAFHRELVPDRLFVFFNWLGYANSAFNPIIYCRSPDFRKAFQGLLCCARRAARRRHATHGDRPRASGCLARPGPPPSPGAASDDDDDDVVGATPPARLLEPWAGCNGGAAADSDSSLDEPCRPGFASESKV
Chain of Glucocorticoid receptor (P04150 whole entry): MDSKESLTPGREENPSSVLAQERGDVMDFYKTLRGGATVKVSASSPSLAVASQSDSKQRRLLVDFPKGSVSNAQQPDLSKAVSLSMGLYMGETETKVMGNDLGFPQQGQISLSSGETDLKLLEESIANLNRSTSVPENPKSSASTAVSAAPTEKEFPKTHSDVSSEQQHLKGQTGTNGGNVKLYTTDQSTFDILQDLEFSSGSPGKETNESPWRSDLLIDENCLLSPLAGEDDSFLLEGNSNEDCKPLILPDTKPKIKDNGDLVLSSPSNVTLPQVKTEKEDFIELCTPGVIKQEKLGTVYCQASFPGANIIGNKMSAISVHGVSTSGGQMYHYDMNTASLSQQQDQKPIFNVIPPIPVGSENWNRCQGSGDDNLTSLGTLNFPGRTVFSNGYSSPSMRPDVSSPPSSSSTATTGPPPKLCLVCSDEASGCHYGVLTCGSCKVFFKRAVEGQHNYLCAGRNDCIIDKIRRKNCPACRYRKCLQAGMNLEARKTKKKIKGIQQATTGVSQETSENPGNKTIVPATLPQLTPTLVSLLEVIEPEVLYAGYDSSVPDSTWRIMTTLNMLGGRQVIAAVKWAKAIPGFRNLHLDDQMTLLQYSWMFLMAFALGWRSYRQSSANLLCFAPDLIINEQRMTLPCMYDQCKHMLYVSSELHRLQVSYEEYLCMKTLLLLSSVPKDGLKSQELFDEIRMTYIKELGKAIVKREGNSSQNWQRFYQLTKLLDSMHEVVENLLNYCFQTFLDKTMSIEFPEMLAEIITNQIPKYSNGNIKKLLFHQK
Chain of Muscarinic acetylcholine receptor M3 (P20309 whole entry): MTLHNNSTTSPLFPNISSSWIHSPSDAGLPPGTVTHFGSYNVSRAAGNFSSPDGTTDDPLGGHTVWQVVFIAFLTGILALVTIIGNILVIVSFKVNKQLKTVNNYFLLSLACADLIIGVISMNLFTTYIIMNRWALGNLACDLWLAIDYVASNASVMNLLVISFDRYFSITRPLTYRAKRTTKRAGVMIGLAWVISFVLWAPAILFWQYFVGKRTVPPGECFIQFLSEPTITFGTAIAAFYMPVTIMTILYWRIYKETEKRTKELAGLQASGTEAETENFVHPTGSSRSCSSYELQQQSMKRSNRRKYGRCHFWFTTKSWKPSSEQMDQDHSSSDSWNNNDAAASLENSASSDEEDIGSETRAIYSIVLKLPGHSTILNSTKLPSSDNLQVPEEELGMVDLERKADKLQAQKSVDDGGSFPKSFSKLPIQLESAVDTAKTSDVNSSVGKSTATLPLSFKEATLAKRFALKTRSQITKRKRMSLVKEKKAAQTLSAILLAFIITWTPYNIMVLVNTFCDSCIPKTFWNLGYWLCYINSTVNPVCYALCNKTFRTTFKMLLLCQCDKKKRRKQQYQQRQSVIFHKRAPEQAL
Chain of Alpha-2A adrenergic receptor (Homo sapiens) (P08913 whole entry): as the sequence (P08913 whole entry) above

Question: For `Cc1cn([C@H](C)CC#N)c(=O)c2cc(Cn3nc(C(F)F)cc3Cl)nn12`, which EC50 [1] is on record?
Answer: The EC50 was greater than 10 µM.

Question: And the IC50 [1]?
Answer: The IC50 was greater than 10 µM.

Question: And the EC50 (Adenosine receptor A2a)?
Answer: Its EC50 is greater than 10 µM.

Question: What about the IC50 (Adenosine receptor A2a) of the same compound?
Answer: The IC50 was greater than 10 µM.

Question: What about the EC50 [2] of the same compound?
Answer: The EC50 was greater than 10 µM.

Question: And the IC50 [2]?
Answer: The IC50 was greater than 10 µM.

Question: And the inhibition [3]?
Answer: The inhibition was 0.11%.

Question: What about the inhibition [4] of the same compound?
Answer: Its inhibition is 21.7%.

Question: What about the EC50 [5] of the same compound?
Answer: Its EC50 is greater than 10 µM.

Question: What about the IC50 [5] of the same compound?
Answer: Its IC50 is greater than 10 µM.

Question: And the inhibition [6]?
Answer: Its inhibition is 2.27%.

Question: And the inhibition [7]?
Answer: The inhibition was 6.65%.

Question: And the inhibition [8]?
Answer: The inhibition was 6.16%.

Question: And the inhibition [9]?
Answer: Its inhibition is -6.73%.

Question: What about the Ki [10] of the same compound?
Answer: Its Ki is 0.336 µM.

Question: What about the pKi [10] of the same compound?
Answer: The pKi was 6.47.

Question: What about the EC50 (Endothelin-1 receptor) of the same compound?
Answer: Its EC50 is greater than 10 µM.

Question: What about the IC50 (Endothelin-1 receptor) of the same compound?
Answer: The IC50 was greater than 10 µM.

Question: What about the IC50 [11] of the same compound?
Answer: Its IC50 is greater than 10 µM.

Question: And the EC50 (Histamine H2 receptor [12])?
Answer: The EC50 was greater than 10 µM.

Question: And the IC50 (Histamine H2 receptor [12])?
Answer: Its IC50 is greater than 10 µM.

Question: What about the EC50 [13] of the same compound?
Answer: The EC50 was greater than 10 µM.

Question: What about the IC50 [13] of the same compound?
Answer: The IC50 was greater than 10 µM.

Question: What about the IC50 [14] of the same compound?
Answer: Its IC50 is greater than 10 µM.

Question: And the IC50 [15]?
Answer: Its IC50 is greater than 10 µM.

Question: And the inhibition [16]?
Answer: The inhibition was -1.11%.

Question: And the inhibition [17]?
Answer: Its inhibition is 17.9%.

Question: And the inhibition (Histamine H2 receptor [18])?
Answer: Its inhibition is 3.64%.

Question: What about the EC50 [19] of the same compound?
Answer: Its EC50 is > 30 µM (not active).

Question: And the IC50 [20]?
Answer: The IC50 was greater than 10 µM.

Question: What about the IC50 [21] of the same compound?
Answer: The IC50 was greater than 10 µM.

Question: What about the inhibition (Rattus norvegicus) of the same compound?
Answer: Its inhibition is 83.2%.

Question: And the inhibition [22]?
Answer: The inhibition was 19.3%.

Question: What about the IC50 [23] of the same compound?
Answer: The IC50 was greater than 10 µM.

Question: And the EC50 (Glucocorticoid receptor)?
Answer: The EC50 was greater than 10 µM.

Question: What about the IC50 (Glucocorticoid receptor) of the same compound?
Answer: Its IC50 is greater than 10 µM.

Question: And the inhibition (Histamine H1 receptor)?
Answer: Its inhibition is 31.7%.

Question: What about the inhibition [24] of the same compound?
Answer: The inhibition was 15.9%.

Question: And the inhibition [25]?
Answer: Its inhibition is 8.34%.

Question: And the inhibition [26]?
Answer: Its inhibition is 34.8%.

Question: What about the inhibition [27] of the same compound?
Answer: The inhibition was 90.8%.

Question: What about the IC50 (Acetylcholinesterase) of the same compound?
Answer: The IC50 was greater than 10 µM.

Question: What about the inhibition [28] of the same compound?
Answer: The inhibition was -4%.

Question: And the inhibition [29]?
Answer: The inhibition was 54.8%.

Question: What about the Ki ([30]; read-out: Ki) of the same compound?
Answer: The Ki was 9.53 µM.

Question: And the Ki ([30]; read-out: pKi (converted))?
Answer: Its Ki is 9.55 µM.

Question: And the EC50 [31]?
Answer: The EC50 was greater than 10 µM.

Question: And the IC50 [31]?
Answer: The IC50 was greater than 10 µM.

Question: And the inhibition [32]?
Answer: The inhibition was 33%.

Question: And the IC50 [33]?
Answer: The IC50 was 7.9 µM.

Question: What about the inhibition [34] of the same compound?
Answer: Its inhibition is 1.48%.

Question: And the EC50 [35]?
Answer: Its EC50 is greater than 10 µM.

Question: And the IC50 [35]?
Answer: The IC50 was greater than 10 µM.

Question: And the IC50 [36]?
Answer: The IC50 was greater than 10 µM.

Question: What about the EC50 [37] of the same compound?
Answer: The EC50 was greater than 10 µM.

Question: And the IC50 [37]?
Answer: Its IC50 is greater than 10 µM.

Question: What about the EC50 [38] of the same compound?
Answer: Its EC50 is greater than 10 µM.

Question: And the IC50 [38]?
Answer: The IC50 was greater than 10 µM.

Question: What about the EC50 (Cannabinoid receptor 2) of the same compound?
Answer: Its EC50 is greater than 10 µM.

Question: What about the IC50 (Cannabinoid receptor 2) of the same compound?
Answer: Its IC50 is greater than 10 µM.

Question: And the inhibition [39]?
Answer: The inhibition was -5.4%.

Reference: ChEMBL document CHEMBL5058641, “Data for DCP probe TP-050” (2022)
